Data from patent publication US20250144094A1 (Erasca, Inc., priority 2021, published 2025).

Target: Recombinant human ULK1 (1-649) (Homo sapiens (Human), UniProt O75385)
Assay: ULK1 ADP Glo kinase activity assay, new method (ULKtide peptide substrate)
Settings: 25° C., 40 minutes, read-out: ULK1 biochemical IC50
How it was run: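 GST-tagged human ULK1 (1-649) from Sf9 cells was reacted with ULKtide peptide and ATP for 40 min at 25 °C across 12-point compound dilutions from 10 μM. ADP formed was quantified by ADP-Glo luminescence; IC50 came from four-parameter fits relative to DMSO controls.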

Recombinant human ULK1 (1-649), sequence (O75385 1-649): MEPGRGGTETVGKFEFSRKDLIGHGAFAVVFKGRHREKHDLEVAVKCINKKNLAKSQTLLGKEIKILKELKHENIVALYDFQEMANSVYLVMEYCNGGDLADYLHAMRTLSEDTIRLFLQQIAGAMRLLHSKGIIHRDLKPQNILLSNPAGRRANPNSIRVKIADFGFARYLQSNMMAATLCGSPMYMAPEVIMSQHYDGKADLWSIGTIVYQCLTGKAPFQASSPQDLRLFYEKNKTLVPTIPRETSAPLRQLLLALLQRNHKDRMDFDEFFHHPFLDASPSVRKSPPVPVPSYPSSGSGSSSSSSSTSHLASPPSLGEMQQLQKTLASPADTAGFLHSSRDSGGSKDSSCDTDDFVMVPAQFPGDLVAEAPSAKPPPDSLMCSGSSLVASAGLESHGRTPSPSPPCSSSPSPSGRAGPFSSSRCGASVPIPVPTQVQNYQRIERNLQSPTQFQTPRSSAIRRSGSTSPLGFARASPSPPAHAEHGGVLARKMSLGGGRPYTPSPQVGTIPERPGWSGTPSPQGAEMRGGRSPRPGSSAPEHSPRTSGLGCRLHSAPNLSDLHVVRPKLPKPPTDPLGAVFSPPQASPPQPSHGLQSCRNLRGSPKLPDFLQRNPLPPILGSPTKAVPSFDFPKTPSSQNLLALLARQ

Compound | IC50
CCN1CCS(=O)(=O)c2cc(-c3nc(Nc4cc5c(cc4Cl)CCNC5)ncc3C(F)(F)F)sc2C1=O [Example 204, 7-(2-((6-chloro-1,2,3,4-tetrahydroisoquinolin-7-yl)amino)-5-(trifluoromethyl)pyrimidin-4-yl)-4-ethyl-3,4-dihydrothieno[2,3-f][1,4]thiazepin-5(2H)-one 1,1-dioxide] | ≤ 5 nM
CCc1cc2c(cc1Nc1ncc(C(F)(F)F)c(-c3cc4c(s3)C(=O)N(C3CC3)CCS4(=O)=O)n1)CCNC2 [Example 207, 4-cyclopropyl-7-(2-((7-ethyl-1,2,3,4-tetrahydroisoquinolin-6-yl)amino)-5-(trifluoromethyl)pyrimidin-4-yl)-3,4-dihydrothieno[2,3-f][1,4]thiazepin-5(2H)-one 1,1-dioxide] | ≤ 5 nM
CCc1cc2c(cc1Nc1ncc(C(F)(F)F)c(-c3cc4c(s3)C(=O)N(C3CCC3)CCS4(=O)=O)n1)CCNC2 [Example 208, 4-cyclobutyl-7-(2-((7-ethyl-1,2,3,4-tetrahydroisoquinolin-6-yl)amino)-5-(trifluoromethyl)pyrimidin-4-yl)-3,4-dihydrothieno[2,3-f][1,4]thiazepin-5(2H)-one 1,1-dioxide] | ≤ 5 nM
O=C1c2sc(-c3nc(Nc4cc5c(cc4C4CC4)CNCC5)ncc3C(F)(F)F)cc2S(=O)(=O)CCN1C1CC1 [Example 209, 4-cyclopropyl-7-(2-((7-cyclopropyl-1,2,3,4-tetrahydroisoquinolin-6-yl)amino)-5-(trifluoromethyl)pyrimidin-4-yl)-3,4-dihydrothieno[2,3-f][1,4]thiazepin-5(2H)-one 1,1-dioxide] | ≤ 5 nM
O=C1c2sc(-c3nc(Nc4cc5c(cc4Cl)CCNC5)ncc3C(F)(F)F)cc2S(=O)(=O)CCN1CC(F)(F)F [Example 214, 7-(2-((6-chloro-1,2,3,4-tetrahydroisoquinolin-7-yl)amino)-5-(trifluoromethyl)pyrimidin-4-yl)-4-(2,2,2-trifluoroethyl)-3,4-dihydrothieno[2,3-f][1,4]thiazepin-5(2H)-one 1,1-dioxide] | ≤ 5 nM
O=C1c2sc(-c3nc(Nc4cc5c(cc4C4CC4)CNCC5)ncc3C(F)(F)F)cc2S(=O)(=O)CCN1CC(F)(F)F [Example 215, 7-(2-((7-cyclopropyl-1,2,3,4-tetrahydroisoquinolin-6-yl)amino)-5-(trifluoromethyl)pyrimidin-4-yl)-4-(2,2,2-trifluoroethyl)-3,4-dihydrothieno[2,3-f][1,4]thiazepin-5(2H)-one 1,1-dioxide] | ≤ 5 nM
O=C1c2sc(-c3nc(Nc4cc5c(cc4C4CC4)CNCC5)ncc3C(F)(F)F)cc2S(=O)(=O)CCN1C1CCC1 [Example 218, 4-cyclobutyl-7-(2-((7-cyclopropyl-1,2,3,4-tetrahydroisoquinolin-6-yl)amino)-5-(trifluoromethyl)pyrimidin-4-yl)-3,4-dihydrothieno[2,3-f][1,4]thiazepin-5(2H)-one 1,1-dioxide] | ≤ 5 nM
O=C1c2sc(-c3nc(Nc4cc5c(cc4C4CC4)CNCC5)ncc3C(F)(F)F)cc2S(=O)(=O)CCN1C1COC1 [Example 219, 7-(2-((7-cyclopropyl-1,2,3,4-tetrahydroisoquinolin-6-yl)amino)-5-(trifluoromethyl)pyrimidin-4-yl)-4-(oxetan-3-yl)-3,4-dihydrothieno[2,3-f][1,4]thiazepin-5(2H)-one 1,1-dioxide] | ≤ 5 nM

The next lines start with the values.

IC50 | Compound
≤ 5 nM | CCN1CCc2cc(Nc3ncc(C(F)(F)F)c(-c4cc5c(s4)C(=O)N(C4CCC4)CCS5(=O)=O)n3)c(Cl)cc2C1 [Example 203, 7-(2-((7-chloro-2-ethyl-1,2,3,4-tetrahydroisoquinolin-6-yl)amino)-5-(trifluoromethyl)pyrimidin-4-yl)-4-cyclobutyl-3,4-dihydrothieno[2,3-f][1,4]thiazepin-5(2H)-one 1,1-dioxide]
≤ 5 nM | Cc1cc2c(cc1Nc1ncc(C(F)(F)F)c(-c3cc4c(s3)C(=O)N(C)CCS4(=O)=O)n1)CCN(CC1CC1)C2 [Example 205, 7-(2-((2-(cyclopropylmethyl)-7-methyl-1,2,3,4-tetrahydroisoquinolin-6-yl)amino)-5-(trifluoromethyl)pyrimidin-4-yl)-4-methyl-3,4-dihydrothieno[2,3-f][1,4]thiazepin-5(2H)-one 1,1-dioxide]
≤ 5 nM | CN1CCS(=O)(=O)c2cc(-c3nc(Nc4ccc(N5CCN(CC6CC6)CC5)cc4Cl)ncc3C(F)(F)F)sc2C1=O [Example 206, 7-(2-((2-chloro-4-(4-(cyclopropylmethyl)piperazin-1-yl)phenyl)amino)-5-(trifluoromethyl)pyrimidin-4-yl)-4-methyl-3,4-dihydrothieno[2,3-f][1,4]thiazepin-5(2H)-one 1,1-dioxide]
≤ 5 nM | O=C1c2sc(-c3nc(Nc4cc5c(cc4Cl)CNCC5)ncc3C(F)(F)F)cc2S(=O)(=O)CCN1C1COC1 [Example 210, 7-(2-((7-chloro-1,2,3,4-tetrahydroisoquinolin-6-yl)amino)-5-(trifluoromethyl)pyrimidin-4-yl)-4-(oxetan-3-yl)-3,4-dihydrothieno[2,3-f][1,4]thiazepin-5(2H)-one 1,1-dioxide]
10 to 50 nM | CCN1CCc2cc(Cl)c(Nc3ncc(C(F)(F)F)c(-c4cc5c(s4)C(=O)N(C)CCS5(=O)=O)n3)cc2C1 [Example 211, 7-(2-((6-chloro-2-ethyl-1,2,3,4-tetrahydroisoquinolin-7-yl)amino)-5-(trifluoromethyl)pyrimidin-4-yl)-4-methyl-3,4-dihydrothieno[2,3-f][1,4]thiazepin-5(2H)-one 1,1-dioxide]
≤ 5 nM | CCc1cc2c(cc1Nc1ncc(C(F)(F)F)c(-c3cc4c(s3)C(=O)N(C)CCS4(=O)=O)n1)CNCC2 [Example 212, 7-(2-((6-ethyl-1,2,3,4-tetrahydroisoquinolin-7-yl)amino)-5-(trifluoromethyl)pyrimidin-4-yl)-4-methyl-3,4-dihydrothieno[2,3-f][1,4]thiazepin-5(2H)-one 1,1-dioxide]
≤ 5 nM | CCN1CCc2cc(Nc3ncc(C(F)(F)F)c(-c4cc5c(s4)C(=O)N(C4CC4)CCS5(=O)=O)n3)c(Cl)cc2C1 [Example 213, 7-(2-((7-chloro-2-ethyl-1,2,3,4-tetrahydroisoquinolin-6-yl)amino)-5-(trifluoromethyl)pyrimidin-4-yl)-4-cyclopropyl-3,4-dihydrothieno[2,3-f][1,4]thiazepin-5(2H)-one 1,1-dioxide]
≤ 5 nM | Cc1cc2c(cc1Nc1ncc(C(F)(F)F)c(-c3cc4c(s3)C(=O)N(C)CCS4(=O)=O)n1)CCN(CC1COC1)C2 [Example 216, 4-methyl-7-(2-((7-methyl-2-(oxetan-3-ylmethyl)-1,2,3,4-tetrahydroisoquinolin-6-yl)amino)-5-(trifluoromethyl)pyrimidin-4-yl)-3,4-dihydrothieno[2,3-f][1,4]thiazepin-5(2H)-one 1,1-dioxide]
≤ 5 nM | CN1CCS(=O)(=O)c2cc(-c3nc(Nc4ccc(N5CCN(CC6COC6)CC5)cc4Cl)ncc3C(F)(F)F)sc2C1=O [Example 217, 7-(2-((2-chloro-4-(4-(oxetan-3-ylmethyl)piperazin-1-yl)phenyl)amino)-5-(trifluoromethyl)pyrimidin-4-yl)-4-methyl-3,4-dihydrothieno[2,3-f][1,4]thiazepin-5(2H)-one 1,1-dioxide]
